Bounds are passed on as bounds.

The target of one assay is T1, BRM (Homo sapiens, UniProt P51531).
T1 construct: made in house; host or cells: High Five insect cells
Description: ATPase catalytic activity of BRM, ADP-Glo in vitro biochemical assay. The settings on record: ATPase catalytic activity, 30 nM BRM, 400 μM ATP, read-out: BRM IP50.

Another assay deals with T2, BRG-1 (Homo sapiens, UniProt P51532).
T2 construct: made in house; host or cells: High Five insect cells
The experiment in a line: ATPase catalytic activity of BRG-1, ADP-Glo in vitro biochemical assay. The settings on record: ATPase catalytic activity, 30 nM BRG-1, 400 μM ATP, read-out: BRG1 IP50.

T2 sequence (P51532 whole entry): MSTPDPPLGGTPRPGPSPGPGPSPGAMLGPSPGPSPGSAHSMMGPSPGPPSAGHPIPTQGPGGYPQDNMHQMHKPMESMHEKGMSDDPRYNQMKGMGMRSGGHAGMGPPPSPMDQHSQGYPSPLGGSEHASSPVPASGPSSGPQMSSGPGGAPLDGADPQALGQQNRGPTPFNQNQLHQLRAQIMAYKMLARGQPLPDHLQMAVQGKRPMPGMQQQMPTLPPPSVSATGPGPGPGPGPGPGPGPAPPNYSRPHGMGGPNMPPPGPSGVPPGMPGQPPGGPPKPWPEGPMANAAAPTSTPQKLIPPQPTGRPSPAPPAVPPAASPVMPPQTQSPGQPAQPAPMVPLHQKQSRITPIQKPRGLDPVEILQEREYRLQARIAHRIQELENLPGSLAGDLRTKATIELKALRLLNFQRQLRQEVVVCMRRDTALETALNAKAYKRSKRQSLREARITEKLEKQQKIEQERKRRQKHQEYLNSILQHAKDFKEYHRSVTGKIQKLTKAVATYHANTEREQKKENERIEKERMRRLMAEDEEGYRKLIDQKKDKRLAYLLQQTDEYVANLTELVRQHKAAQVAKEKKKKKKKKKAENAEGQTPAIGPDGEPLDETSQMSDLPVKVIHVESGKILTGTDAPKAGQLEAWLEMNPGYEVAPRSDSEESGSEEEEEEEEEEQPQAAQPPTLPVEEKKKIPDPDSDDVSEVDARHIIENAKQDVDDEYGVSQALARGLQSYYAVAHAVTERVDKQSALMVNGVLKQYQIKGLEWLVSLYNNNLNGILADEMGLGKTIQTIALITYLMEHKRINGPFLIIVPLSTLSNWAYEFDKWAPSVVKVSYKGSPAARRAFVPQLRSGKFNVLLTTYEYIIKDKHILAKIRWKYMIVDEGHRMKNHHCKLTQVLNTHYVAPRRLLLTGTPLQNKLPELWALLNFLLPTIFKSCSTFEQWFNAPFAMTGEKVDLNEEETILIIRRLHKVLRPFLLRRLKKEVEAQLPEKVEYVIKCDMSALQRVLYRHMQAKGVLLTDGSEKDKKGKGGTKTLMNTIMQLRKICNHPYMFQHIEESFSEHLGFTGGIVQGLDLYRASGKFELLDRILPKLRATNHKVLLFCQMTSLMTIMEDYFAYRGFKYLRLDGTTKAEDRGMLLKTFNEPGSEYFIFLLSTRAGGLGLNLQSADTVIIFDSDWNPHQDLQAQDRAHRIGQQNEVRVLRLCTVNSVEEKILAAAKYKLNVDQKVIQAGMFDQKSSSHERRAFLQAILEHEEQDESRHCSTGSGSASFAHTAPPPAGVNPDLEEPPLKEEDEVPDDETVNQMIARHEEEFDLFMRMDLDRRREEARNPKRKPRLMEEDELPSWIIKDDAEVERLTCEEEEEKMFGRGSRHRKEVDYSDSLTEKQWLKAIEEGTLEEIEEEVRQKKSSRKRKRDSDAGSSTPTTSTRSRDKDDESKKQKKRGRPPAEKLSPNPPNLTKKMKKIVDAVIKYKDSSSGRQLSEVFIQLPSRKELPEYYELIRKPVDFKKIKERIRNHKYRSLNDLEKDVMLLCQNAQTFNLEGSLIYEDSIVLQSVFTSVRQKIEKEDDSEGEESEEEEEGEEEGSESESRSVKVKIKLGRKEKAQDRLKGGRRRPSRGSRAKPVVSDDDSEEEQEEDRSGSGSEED
T1 sequence (P51531 whole entry): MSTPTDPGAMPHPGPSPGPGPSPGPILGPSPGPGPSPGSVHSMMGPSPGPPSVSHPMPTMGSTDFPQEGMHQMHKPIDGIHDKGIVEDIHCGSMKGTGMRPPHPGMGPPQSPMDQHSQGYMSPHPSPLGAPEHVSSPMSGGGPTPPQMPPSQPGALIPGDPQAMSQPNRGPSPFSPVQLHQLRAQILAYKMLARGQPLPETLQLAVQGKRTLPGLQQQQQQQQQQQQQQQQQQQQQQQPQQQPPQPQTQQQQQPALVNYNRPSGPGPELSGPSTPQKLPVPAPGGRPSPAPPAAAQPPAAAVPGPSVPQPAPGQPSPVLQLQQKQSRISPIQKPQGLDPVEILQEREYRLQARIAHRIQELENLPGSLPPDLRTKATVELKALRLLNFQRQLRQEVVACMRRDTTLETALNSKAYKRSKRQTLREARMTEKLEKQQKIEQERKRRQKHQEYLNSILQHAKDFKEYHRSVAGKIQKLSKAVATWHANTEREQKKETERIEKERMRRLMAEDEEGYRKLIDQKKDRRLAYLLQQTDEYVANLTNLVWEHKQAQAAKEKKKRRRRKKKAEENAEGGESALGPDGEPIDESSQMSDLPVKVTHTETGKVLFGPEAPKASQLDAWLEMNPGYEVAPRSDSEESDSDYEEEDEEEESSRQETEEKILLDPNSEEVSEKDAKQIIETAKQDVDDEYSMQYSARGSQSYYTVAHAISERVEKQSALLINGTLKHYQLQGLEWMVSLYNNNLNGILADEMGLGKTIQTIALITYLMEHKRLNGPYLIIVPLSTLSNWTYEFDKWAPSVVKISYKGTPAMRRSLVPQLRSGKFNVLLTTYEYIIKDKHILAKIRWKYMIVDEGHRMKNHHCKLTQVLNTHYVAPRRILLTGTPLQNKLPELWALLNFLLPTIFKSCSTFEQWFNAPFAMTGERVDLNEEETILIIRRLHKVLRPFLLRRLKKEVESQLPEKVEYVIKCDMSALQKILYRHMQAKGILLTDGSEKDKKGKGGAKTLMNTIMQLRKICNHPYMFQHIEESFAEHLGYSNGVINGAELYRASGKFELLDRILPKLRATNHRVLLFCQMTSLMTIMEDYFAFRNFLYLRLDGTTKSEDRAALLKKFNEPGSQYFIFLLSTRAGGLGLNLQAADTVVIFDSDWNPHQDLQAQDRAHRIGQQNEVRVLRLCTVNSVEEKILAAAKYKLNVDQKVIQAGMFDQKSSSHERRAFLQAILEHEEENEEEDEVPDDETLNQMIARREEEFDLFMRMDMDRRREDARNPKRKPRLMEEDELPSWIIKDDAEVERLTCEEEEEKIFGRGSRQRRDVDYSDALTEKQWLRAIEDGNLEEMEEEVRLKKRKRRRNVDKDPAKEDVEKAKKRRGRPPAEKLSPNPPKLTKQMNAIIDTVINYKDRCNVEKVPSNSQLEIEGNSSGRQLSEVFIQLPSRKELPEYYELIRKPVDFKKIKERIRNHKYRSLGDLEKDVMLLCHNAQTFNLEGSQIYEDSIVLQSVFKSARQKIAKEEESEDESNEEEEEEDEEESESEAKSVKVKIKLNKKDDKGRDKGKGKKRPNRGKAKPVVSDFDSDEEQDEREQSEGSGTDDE

With `N#CC1(n2ccc(C(=O)NCC(=O)Nc3nc(-c4cccc(N5CCC5)n4)cs3)c2)COC1` [Compound 595], the IC50 at BRM and at BRG-1 was above 10 nM throughout.
On to `COC[C@H](NC(=O)c1ccn(S(C)(=O)=O)c1)C(=O)Nc1nc(-c2ccc3c(c2)OCO3)cs1` [Compound 596], for which the figures for the IC50 on BRM and on BRG-1 were below 10 nM and above 10 nM, respectively.
In the same order, the values of `COC[C@H](NC(=O)c1ccn(S(C)(=O)=O)c1)C(=O)Nc1nc(-c2cccc([C@@H]3CC3(F)F)c2)cs1` [Compound 598] are above 10 nM and above 10 nM.
In the same order, the values of `COC[C@H](NC(=O)c1ccn(S(C)(=O)=O)c1)C(=O)Nc1nc(-c2cccc([C@H]3CC3(F)F)c2)cs1` [Compound 599] are above 10 nM and above 10 nM.
For the compound `C[C@@H]1CN(c2cccc(-c3csc(NC(=O)[C@H](C)NC(=O)c4ccn(C5(C#N)COC5)c4)n3)n2)C[C@H](C)O1` [Compound 600], the IC50 at BRM and at BRG-1 was below 10 nM throughout.
Turning to `N#CC1(n2ccc(C(=O)NCC(=O)Nc3nc(-c4cccc(N5CCC5)c4)cs3)c2)COC1` [Compound 601], the IC50 on BRM is below 10 nM; on BRG-1, above 10 nM.
For `C[C@@H]1CN(c2cccc(-c3csc(NC(=O)CNC(=O)c4ccn(C5(C#N)COC5)c4)n3)n2)C[C@H](C)O1` [Compound 602], the IC50 at BRM and on BRG-1 was below 10 nM throughout.
On to `COC[C@H](NC(=O)c1ccn(C(C)(C)C)c1)C(=O)Nc1nc(-c2ccc3ccn(C4COC4)c(=O)c3c2)cs1` [Compound 603], for which the IC50 on BRM and at BRG-1 was below 10 nM in each case.
Regarding `CCO[C@H](NC(=O)c1ccn(S(C)(=O)=O)c1)C(=O)Nc1nc(-c2cccc([C@H]3CC3(F)F)n2)cs1` [Compound 606], the IC50 at BRM was above 10 nM; at BRG-1, above 100 nM.
The matching figures for `CS(=O)(=O)n1ccc(C(=O)NCC(=O)Nc2nc(-c3cc(Cl)c4c(c3)OCO4)cs2)c1` [Compound 607]: above 10 nM and above 10 nM.
Consider `CS(=O)(=O)n1ccc(C(=O)NCC(=O)Nc2nc(-c3cccc([C@@H]4CC4(F)F)n3)cs2)c1` [Compound 608], for which the IC50 on BRM was above 10 nM; on BRG-1 it was above 100 nM.
The matching figures for `CS(=O)(=O)n1ccc(C(=O)NCC(=O)Nc2nc(-c3cccc([C@H]4CC4(F)F)n3)cs2)c1` [Compound 609]: above 10 nM and above 10 nM.
Consider `COC[C@H](NC(=O)c1ccn(S(C)(=O)=O)c1)C(=O)Nc1nc(-c2cc(F)cc(OC3CC3)c2)cs1` [Compound 610], for which the IC50 on BRM and on BRG-1 was above 10 nM in each case.
Take `COC[C@H](NC(=O)c1ccn(C(C)(C)C)c1)C(=O)Nc1nc(-c2cnc3ccn(C)c(=O)c3c2)cs1` [Compound 611]: the IC50 at BRM and at BRG-1 was above 10 nM each time.
Take `CS(=O)(=O)n1ccc(C(=O)NCC(=O)Nc2nc(-c3ccc(F)c(OC4CC4)c3F)cs2)c1` [Compound 612]: the IC50 on BRM and on BRG-1 was above 10 nM in each case.
As for `COC[C@H](NC(=O)c1ccn(S(C)(=O)=O)c1)C(=O)Nc1nc(-c2ccc(F)c(OC3CC3)c2F)cs1` [Compound 613], the IC50 on BRM was above 10 nM; on BRG-1, above 100 nM.
In the same order, the values of `CS(=O)(=O)n1ccc(C(=O)NCC(=O)Nc2nc(-c3ccc(F)c(OC4CC4)n3)cs2)c1` [Compound 614] are above 10 nM and above 10 nM.
The matching figures for `COC[C@H](NC(=O)c1ccn(C(C)(C)C#N)c1)C(=O)Nc1nc(-c2cccc(-c3cnn(C)n3)c2)cs1` [Compound 615]: below 10 nM and below 10 nM.
With `CS(=O)(=O)n1ccc(C(=O)NCC(=O)Nc2nc(-c3cc(F)c4c(c3)OCO4)cs2)c1` [Compound 616], the IC50 at BRM and on BRG-1 was below 10 nM throughout.
For `COC[C@H](NC(=O)c1ccn(S(C)(=O)=O)c1)C(=O)Nc1nc(-c2cc(Cl)c3c(c2)OCO3)cs1` [Compound 617], the IC50 is above 10 nM at BRM and above 100 nM on BRG-1.
With `CC(C)(C)n1ccc(C(=O)NCC(=O)Nc2nc(-c3cccc(N4CCC(C(F)F)C4)n3)cs2)c1` (stereo not shown) [Compound 618], the IC50 at BRM and on BRG-1 was above 10 nM throughout.
Turning to `CS(=O)(=O)n1ccc(C(=O)NCC(=O)Nc2nc(-c3ccc4c(c3)CCO4)cs2)c1` [Compound 619], the figures for the IC50 on BRM and at BRG-1 were below 10 nM and above 10 nM, respectively.
The matching figures for `CC(C)(C)n1ccc(C(=O)NCC(=O)Nc2nc(-c3cccc(N4CCC5(COC5)C4)n3)cs2)c1` [Compound 620]: above 10 nM and above 10 nM.
In the case of `C[C@@H]1CN(c2cccc(-c3csc(NC(=O)CNC(=O)c4ccn([C@@]5(C)CC5(F)F)c4)n3)n2)C[C@H](C)O1` [Compound 621], the IC50 on BRM and on BRG-1 was above 100 nM in each case.
In the case of `C[C@@H]1CN(c2cccc(-c3csc(NC(=O)CNC(=O)c4ccn([C@]5(C)CC5(F)F)c4)n3)n2)C[C@H](C)O1` [Compound 622], the IC50 was below 10 nM at BRM and above 10 nM at BRG-1.
Take `CN(C)[C@H]1CCN(c2cccc(-c3csc(NC(=O)CNC(=O)c4ccn(C(C)(C)C)c4)n3)n2)C1` [Compound 623]: the IC50 on BRM and on BRG-1 was above 100 nM each time.
As for `CC(C)(C)n1ccc(C(=O)NCC(=O)Nc2nc(-c3cccc(N4CCC5(CCOCC5)C4)n3)cs2)c1` [Compound 624], the IC50 on BRM and at BRG-1 was above 100 nM in each case.
Regarding `CC1CN(c2cccc(-c3csc(NC(=O)CNC(=O)c4ccn(C(C)(C)C)c4)n3)n2)C1` [Compound 625], the IC50 on BRM and on BRG-1 was above 100 nM in each case.
With `CC(C)(C)n1ccc(C(=O)NCC(=O)Nc2nc(-c3cccc(N4CCC5(CCOC5)CC4)n3)cs2)c1` [Compound 626], the IC50 at BRM and on BRG-1 was above 100 nM throughout.
For `CC(C)(C)n1ccc(C(=O)NCC(=O)Nc2nc(-c3cccc(N4CCN(c5cccnn5)CC4)n3)cs2)c1` [Compound 627], the IC50 at BRM was above 10 nM; at BRG-1 it was above 100 nM.
The matching figures for `CC(C)(C)n1ccc(C(=O)NCC(=O)Nc2nc(-c3cccc(N4CCC5(CC4)CC(F)C5)n3)cs2)c1` [Compound 628]: above 100 nM and above 100 nM.
Regarding `CC(C)(C)n1ccc(C(=O)NCC(=O)Nc2nc(-c3cccc(N4CC(N5CCS(=O)(=O)CC5)C4)n3)cs2)c1` [Compound 629], the IC50 at BRM and on BRG-1 was above 100 nM in each case.
Take `Cc1nnc(C2CCN(c3cccc(-c4csc(NC(=O)CNC(=O)c5ccn(C(C)(C)C)c5)n4)n3)CC2)o1` [Compound 630]: the IC50 on BRM and on BRG-1 was above 10 nM each time.
Regarding `CC(C)(C)n1ccc(C(=O)NCC(=O)Nc2nc(-c3cccc(N4CCC5(CCCCO5)C4)n3)cs2)c1` (stereo not shown) [Compound 631], the IC50 at BRM and at BRG-1 was above 10 nM throughout.
As to `CC(C)(C)n1ccc(C(=O)NCC(=O)Nc2nc(-c3cccc(N4CCc5ccncc5C4)n3)cs2)c1` [Compound 632], the IC50 on BRM and at BRG-1 was above 10 nM throughout.
As to `CC(C)(C)n1ccc(C(=O)NCC(=O)Nc2nc(-c3cccc(N4CCC(OC(F)F)C4)n3)cs2)c1` (stereo not shown) [Compound 633], the IC50 at BRM and at BRG-1 was above 10 nM in each case.
`CC(C)(C)n1ccc(C(=O)NCC(=O)Nc2nc(-c3cccc(N4CCC5(CC5)C4)n3)cs2)c1` [Compound 634]: the IC50 at BRM and at BRG-1 was above 10 nM throughout.
For the compound `CC(C)(C)n1ccc(C(=O)NCC(=O)Nc2nc(-c3cccc(N4CC[C@@H](N5CCOCC5)[C@@H](F)C4)n3)cs2)c1` [Compound 635], the IC50 on BRM and at BRG-1 was above 100 nM in each case.
On to `CC(C)(C)n1ccc(C(=O)NCC(=O)Nc2nc(-c3cccc(N4CCCC(N5CCCC5)C4)n3)cs2)c1` (stereo not shown) [Compound 636], for which the IC50 at BRM and on BRG-1 was above 10 nM in each case.
Regarding `Cn1cc2c(n1)CCN(c1cccc(-c3csc(NC(=O)CNC(=O)c4ccn(C(C)(C)C)c4)n3)n1)C2` [Compound 637], the IC50 at BRM and on BRG-1 was above 10 nM each time.
As for `CC(C)(C)n1ccc(C(=O)NCC(=O)Nc2nc(-c3cccc(N4CCN5CCOCC5C4)n3)cs2)c1` (stereo not shown) [Compound 638], the IC50 at BRM and on BRG-1 was above 100 nM each time.
Take `CCC(=O)N1CCN(c2cccc(-c3csc(NC(=O)CNC(=O)c4ccn(C(C)(C)C)c4)n3)n2)CC1` [Compound 639]: the IC50 on BRM and on BRG-1 was above 10 nM each time.
With `CN(C)C(=O)N1CCN(c2cccc(-c3csc(NC(=O)CNC(=O)c4ccn(C(C)(C)C)c4)n3)n2)CC1` [Compound 640], the IC50 at BRM was above 10 nM; at BRG-1, above 100 nM.
In the same order, the values of `CN1C(=O)CC[C@H]2CN(c3cccc(-c4csc(NC(=O)CNC(=O)c5ccn(C(C)(C)C)c5)n4)n3)CC[C@H]21` [Compound 641] are above 100 nM and above 100 nM.
The matching figures for `CCOC1CCN(c2cccc(-c3csc(NC(=O)CNC(=O)c4ccn(C(C)(C)C)c4)n3)n2)CC1` [Compound 642]: above 100 nM and above 100 nM.
The matching figures for `CN1C(=O)CC[C@@H]2CN(c3cccc(-c4csc(NC(=O)CNC(=O)c5ccn(C(C)(C)C)c5)n4)n3)CC[C@H]21` [Compound 643]: above 10 nM and above 10 nM.
On to `CC(C)(C)n1ccc(C(=O)NCC(=O)Nc2nc(-c3cccc(N4CC5(COC5)C4)n3)cs2)c1` [Compound 644], for which the IC50 on BRM and on BRG-1 was above 100 nM throughout.
Turning to `CC(C)(C)n1ccc(C(=O)NCC(=O)Nc2nc(-c3cccc(N4CCCC5(CCOCC5)C4)n3)cs2)c1` [Compound 645], the IC50 at BRM and on BRG-1 was above 10 nM in each case.
Regarding `CC(C)(C)n1ccc(C(=O)NCC(=O)Nc2nc(-c3cccc(N4CC(F)(F)C4)n3)cs2)c1` [Compound 646], the IC50 on BRM and on BRG-1 was above 100 nM throughout.
Regarding `CC(C)(C)n1ccc(C(=O)NCC(=O)Nc2nc(-c3cccc(N4CC[C@@H](F)C4)n3)cs2)c1` [Compound 647], the IC50 on BRM and at BRG-1 was above 10 nM throughout.

Source of the values: patent publication US20230079819A1, “COMPOUNDS AND USES THEREOF” (Foghorn Therapeutics Inc., priority 2019, published 2023).
